Data reported in publication PMC11859423, “Fluorescent Probes to Image the KCa3.1 Channel in Tumor Cells” (Pharmaceutics, 2025).
“And” between values parts separate entries of the source, which are not always exact repeats. Equal entries are not always repeated. “Also recorded” adds a separate entry of the source. Where two headings read alike, the source gives them in different places. Blank lines part the entries; values can stand above or below the compound they belong to.

Legend:
[1] = cited from earlier work; for Absorption λmax / Emission λmax / Stokes Shift / ΦF absolute quantum yield / τ photoluminescence lifetime: 298 K
[2] = UV-Vis absorption and time-resolved photoluminescence spectroscopy; type: physicochemical
Procedure: All solvents used were of spectrometric grade (Uvasol®). UV-visible absorption spectra were measured using a Shimadzu UV–VIS spectrophotometer (UV-3600i). Photoluminescence quantum yields were measured with a Hamamatsu Photonics absolute PL quantum yield measurement system (C9920-02) equipped with a L9799-01 CW Xe light source (150 W), a monochromator, a C7473 photonic multi-channel analyzer, an integrating sphere and employing U6039-05 software, version 3.6.0. (Hamamatsu Photonics, Ltd., Shizuoka, Japan). Steady-state excitation and emission spectra were recorded on a FluoTime 300 spectrometer from PicoQuant equipped with a 300 W ozone-free Xe lamp (200–1100 nm), a 10 W Xe-flash lamp (200–1100 nm, pulse width ca. 1 µs) with repetition rates of 1–300 Hz, a double-grating excitation monochromator (Czerny–Turner type, grating with 1200 lines/mm, blaze wavelength: 300 nm), diode lasers (pulse width < 20 ps) operated by a computer-controlled laser driver PDL-828 “Sepia II” (repetition rate up to 80 MHz, burst mode for slow and weak decays), two emission monochromators (Czerny–Turner, selectable between double-grating blazed at 500 nm with 2.7 nm/mm dispersion and 1200 lines/mm, or single-grating blazed at 1250 nm with 5.4 nm/mm dispersion and 600 lines/mm) with adjustable slit width between 25 μm and 7 mm. Glam–Thompson polarizers for excitation (after the Xe-lamps) and emission (after the sample) were used. Different sample holders (Peltier-cooled mounting unit ranging from −15 to 110 °C or an adjustable front-face sample holder), along with two detectors (namely a PMA Hybrid-07 from PicoQuant with transit time spread FWHM < 50 ps, 200–850 nm, or a H10330C-45-C3 NIR detector with transit time spread FWHM 0.4 ns, 950–1400 nm from Hamamatsu) were used. Steady-state spectra and photoluminescence lifetimes were recorded in TCSPC mode by a PicoHarp 300 (minimum base resolution 4 ps) or in MCS mode by a TimeHarp 260 (where up to several ms can be traced). Emission and excitation spectra were corrected for source intensity (lamp and grating) by standard correction curves. For samples with lifetimes in the ns order, an instrument response function calibration (IRF) was performed using a diluted Ludox® dispersion. Lifetime analysis was performed using the commercial EasyTau 2 software, version 2.3. (PicoQuant, Berlin, Germany). The quality of the fit was assessed by minimizing the reduced chi squared function (χ^2) and visual inspection of the weighted residuals and their autocorrelation.
Fluorescence microscopy was used for the analysis of KCa3.1 channel labeling of cells with fluorescent dyes. Therefore, the photophysical properties of fluorescently labeled senicapoc derivatives 15a, 21a, and 22 were determined. Since the fluorophores are separated from the rest of the molecule by a linker, the photophysical properties could be recorded using azide precursors 6a, 6b, and 7a as well.

[3] = molecular target: T1, KCa3.1 channel in A549-3R cells (Homo sapiens, UniProt O15554); experiment: Staining of fixed A549-3R tumor cells (Protocol 1), fluorescence microscopy; type: cell-based; conditions: 10 µM in PBS, 10 min, 4 °C, Protocol 1
T1 construct: the non-small cell lung cancer cell line A549-3R with a high expression of the KCa3.1 channel was employed; endogenous in cells; host or cells: A549-3R cells
Procedure: For the fixation of the cells, the DMEM medium was removed from the glass bottom dish after incubation for 24 h, and the cells were washed with 1 mL of PBS. Subsequently, 1 mL of 4% paraformaldehyde in PBS solution was added to the glass bottom dish and the mixture was incubated for 30 min at room temperature. Thereafter, the cells were washed five times with 1 mL of PBS and used for the cell staining experiments.
After fixation of the cells (Section 2.10.2), 300 µL of the 10 µM staining solution was added to the glass bottom dish. The cells were incubated for 10 min at 4 °C in a dark chamber. After incubation, the cells were washed five times with 1 mL of PBS and used subsequently for fluorescence microscopy.
An Axiovert 200 inverted microscope (Carl Zeiss AG, Jena, Germany) with a ×100 oil immersion objective and a digital camera (SPOT RT SE from Diagnostic Instruments Inc., Livingston, UK) were used. The camera was controlled by MetaVue software (version 6.3r6, Visitron, Germany). Two different filter sets were employed, the FITC filter set (Carl Zeiss Filter Set 10 bandwidth excitation filter 450–490, color splitter 510, bandpass filter 515–565) and the TRITC filter set (Carl Zeiss Filter Set 15, bandpass excitation filter 546/12, dichroic mirror 580, emission filter Long Pass 590).
Using the free imaging software ImageJ (1.53f51, NIH, USA), squares with an edge length of 50 × 50 pixels, corresponding to an area of 9 µm^2, were randomly placed in a cell and signals with Full Width at Half Maximum (FWHM) of ≤5 pixels (~300 nm) were counted as a KCa3.1 channel. For the evaluation, 7 squares were analyzed.
For the staining experiments, the non-small cell lung cancer cell line A549-3R with a high expression of the KCa3.1 channel was employed. An optimized staining protocol (Protocol 1) described previously was followed to analyze the imaging properties of the fluorescent probes. In brief, the 10 µM solution of the senicapoc–dye conjugate in PBS was added to adherent A549-3R cells in a glass bottom dish and the set-up was incubated for 10 min at 4 °C in a dark chamber. After careful washing, the cells were analyzed with a fluorescence microscope.
The images were analyzed with respect to size and density of the fluorescent dots. For this purpose, a square with a size of 50 × 50 pixels was randomly placed on the cell images using ImageJ. The intensities of the signals within the square were analyzed to calculate the Full Width at Half Maximum (FWHM) for each selected dot, which represents a measure for the signal size. For the accurate representation of a single KCa3.1 channel, the FWHM should be in the range of five pixels. Signals with a FWHM of ≤5 pixels within the square were regarded as labeled KCa3.1 channels and the number of identified channels was used to determine the density of the ion channels on the cells (Figure S8, Supplementary Materials).

[4] = logP by HPLC retention time correlation; type: physicochemical; conditions: standardized reversed phase HPLC system
Procedure: The logP values were recorded using HPLC analysis. Thus, the retention time of the test compound in a standardized reversed phase HPLC system is correlated with the retention times of compounds with known logP values.
In addition to the logD7.4 values, the logP values of the fluorescent probes were recorded by HPLC, i.e., after calibration of the method, the retention times were correlated with the logP values or the compounds [33]. […] Fluorescein-labeled ligands 21a and 21b are considerably more polar than the corresponding bodipy-labeled senicapoc derivatives.

[5] = logD7.4 by micro shake flask method (n-octanol / MOPS buffer pH 7.4, LC-MS); type: physicochemical; conditions: read-out: logD7.4 ± SD (Micro Shake Flask)
Procedure: The logD7.4 values were recorded using the micro shake flask method. In this method, the test compound is distributed between n-octanol and MOPS buffer pH 7.4, and the amount of the compound in the buffer layer is determined by mass spectrometry.
The new fluorescent dyes were designed to increase the polarity and reduce the non-specific labeling of lipophilic membranes of cells. Moreover, a higher polarity should lead to increased water solubility and thus improved handling of the dyes. The logD7.4 value was recorded as a measure of the polarity/lipophilicity using our recently published micro-shake flask method. According to this method, the amount of compound in the aqueous 3-morpholinopropanesulfonic acid (MOPS) buffer pH 7.4 was determined by LC-MS [31, 32].

[6] = measured in CH3CN, c = 10^−5 M, CH2CH2O linker instead of CH2CH2OCH2CH2O linker
[7] = solution (CH2Cl2 or CH3CN), c = 10^−5 M, 298 K
[8] = general property stated without reference

increase of absorption and emission maxima by two ethyl moieties at the bodipy core ([2]; 6b compared with 6a): 23 nm
SMILES: CCC1=C(C)C2=C(c3ccc(OCCOCCN=[N+]=[N-])cc3)c3c(C)c(CC)c(C)n3[B-](F)(F)[N+]2=C1C [6b, 8-[4-(2-(2-Azidoethoxy)ethoxy)phenyl]-2,6-diethyl-4,4-difluoro-1,3,5,7-tetramethyl-4-bora-3a,4a-diaza-s-indacene]
Absorption λmax [1, 6]: 524 nm
Emission λmax [1, 6]: 537 nm
Stokes Shift [1, 6]: 13 nm
ΦF absolute quantum yield [1, 6]: 0.81 ± 0.02
τ photoluminescence lifetime [1, 6]: 6.32 ± 0.05 ns

logD [5]: > 5
chromatographic logP [4]: 4
SMILES: CO[B-]1(F)n2c(C)cc(C)c2C(CCCCn2cc(COc3ccc(C(C(N)=O)(c4ccccc4)c4ccc(F)cc4)cc3)nn2)=C2C(C)=CC(C)=[N+]21 (stereo not drawn) [16a, 2-[4-({1-[4-(4-Fluoro-4-methoxy-1,3,5,7-tetramethyl-4-bora-3a,4a-diaza-s-indacen-8-yl)butyl]-1,2,3-triazol-4-yl}methoxy)phenyl]-2-(4-fluorophenyl)-2-phenylacetamide]
staining pattern of fixed A549-3R tumor cells [3]: unspecific staining; also recorded: unspecific labeling

chromatographic logP [4]: 5.4
SMILES: CCC1=C(C)C2=C(CCCCn3cc(COc4ccc(C(C(N)=O)(c5ccccc5)c5ccc(F)cc5)cc4)nn3)c3c(C)c(CC)c(C)n3[B-](F)(OC)[N+]2=C1C (stereo not drawn) [16b, 2-[4-({1-[4-(2,6-Diethyl-4-fluoro-4-methoxy-1,3,5,7-tetramethyl-4-bora-3a,4a-diaza-s-indacen-8-yl)butyl]-1,2,3-triazol-4-yl}methoxy)phenyl]-2-(4-fluorophenyl)-2-phenylacetamide]
staining pattern of fixed A549-3R tumor cells [3]: unspecific staining; also recorded: unspecific labeling

chromatographic logP ([4]; HPLC at pH 6.0): 1.3
SMILES: NC(=O)C(c1ccccc1)(c1ccc(F)cc1)c1ccc(OCCOCCOCCOCCNC(=S)Nc2ccc3c(c2)C(=O)OC32c3ccc(O)cc3Oc3cc(O)ccc32)cc1 (stereo not drawn) [21b, 2-(4-{12-[3-(3′,6′-Dihydroxy-3-oxo-3H-spiro[[2]benzofuran-1,9′-xanthen]-5-yl)thioureido]-1,4,7,10-tteraoxadodecan-1-yl}phenyl)-2-(4-fluorophenyl)-2-phenylacetamide]
staining pattern of fixed A549-3R tumor cells [3]: A weak green fluorescence of the membrane and an intense staining of the nucleus

The next lines start with the compound.

SMILES: CC1=CC(C)=[N+]2C1=C(c1ccc(OCCOCCN=[N+]=[N-])cc1)c1c(C)cc(C)n1[B-]2(F)F [6a]
Absorption λmax ([1]; CH2Cl2, c = 10^−5 M): 501 nm
Emission λmax ([1]; CH2Cl2, c = 10^−5 M): 515 nm
Stokes Shift ([1]; CH2Cl2, c = 10^−5 M): 14 nm
ΦF absolute quantum yield ([1]; CH2Cl2, c = 10^−5 M): 0.48 ± 0.02
τ photoluminescence lifetime ([1]; CH2Cl2, c = 10^−5 M): 3.80 ± 0.02 ns

SMILES: CO[B-]1(F)n2c(C)cc(C)c2C(c2ccc(OCCOCCN=[N+]=[N-])cc2)=C2C(C)=CC(C)=[N+]21 (stereo not drawn) [7a]
Absorption λmax ([1]; CH2Cl2, c = 10^−5 M): 501 nm
Emission λmax ([1]; CH2Cl2, c = 10^−5 M): 516 nm
Stokes Shift ([1]; CH2Cl2, c = 10^−5 M): 15 nm
ΦF absolute quantum yield ([1]; CH2Cl2, c = 10^−5 M): 0.43 ± 0.02
τ photoluminescence lifetime ([1]; CH2Cl2, c = 10^−5 M): 3.50 ± 0.01 ns

SMILES: CCC1=C(C)C2=C(c3ccc(OCCOCCN=[N+]=[N-])cc3)c3c(C)c(CC)c(C)n3[B-](F)(OC)[N+]2=C1C (stereo not drawn) [7b, 8-{4-[2-(2-Azidoethoxy)ethoxy]phenyl}-2,6-diethyl-4-fluoro-4-methoxy-1,3,5,7-tetramethyl-4-bora-3a,4a-diaza-s-indacene]
staining pattern of fixed A549-3R tumor cells [3]: a punctate staining pattern characteristic for the interaction with the ion channel was not observed; also recorded: high fluorescence intensity inside and around the nucleus

SMILES: CCC1=C(C)C2=C(c3ccc(OCCOCCn4cc(COc5ccc(C(C(N)=O)(c6ccccc6)c6ccc(F)cc6)cc5)nn4)cc3)c3c(C)c(CC)c(C)n3[B-](F)(F)[N+]2=C1C (stereo not drawn) [9b, 2-{4-[(1-{2-[4-(2,6-Diethyl-4,4-difluoro-1,3,5,7-tetramethyl-4-bora-3a,4a-diaza-s-indacen-8-yl)phenoxy]ethoxyethyl}-1,2,3-triazol-4-yl)methoxy]phenyl}-2-(4-flluorophenyl)-2-phenylacetamide]
chromatographic logP [4]: 6.7
staining pattern of fixed A549-3R tumor cells [3]: unspecific staining; also recorded: unspecific labeling

SMILES: CC1=CC(C)=[N+]2C1=C(CCCCn1cc(COc3ccc(C(C(N)=O)(c4ccccc4)c4ccc(F)cc4)cc3)nn1)c1c(C)cc(C)n1[B-]2(F)F (stereo not drawn) [15a, 2-[4-({1-[4-(4,4-Difluoro-1,3,5,7-tetramethyl-4-bora-3a,4a-diaza-s-indacen-8-yl)butyl]-1,2,3-triazol-4-yl}methoxy)phenyl]-2-(4-fluorophenyl)-2-phenylacetamide]
quantum yield ([2]; see Table 2): 96%
Absorption λmax [2, 7]: 501 nm
Emission λmax [2, 7]: 513 nm
Stokes Shift [2, 7]: 12 nm
ΦF absolute quantum yield [2, 7]: 0.96 ± 0.04
τ photoluminescence lifetime [2, 7]: 5.77 ns and 5.77 ± 0.02 ns
chromatographic logP [4]: 4.8
staining pattern of fixed A549-3R tumor cells [3]: unspecific staining; also recorded: unspecific labeling

SMILES: O=C1OC2(c3ccc(O)cc3Oc3cc(O)ccc32)c2ccccc21 [fluorescein, reference compound]
absorption maximum λmax [1, 8]: 485 nm
emission maximum λmax [1, 8]: 514 nm
